Laboratory results from PMC3286537 (Purinergic Signalling, 2011).
Numbering of substitutions follows the chain as printed. Read-outs that look alike come from different tables or passages of the source. One block for each compound: values may come before it.

What was measured:
[1] = target: T1, human adenosine A2BR mutant C167S^EL2 (Homo sapiens, UniProt P29275, C167S); experiment: Liquid yeast growth assay, mutant C167S
T1 sequence (P29275 1-332 C167S): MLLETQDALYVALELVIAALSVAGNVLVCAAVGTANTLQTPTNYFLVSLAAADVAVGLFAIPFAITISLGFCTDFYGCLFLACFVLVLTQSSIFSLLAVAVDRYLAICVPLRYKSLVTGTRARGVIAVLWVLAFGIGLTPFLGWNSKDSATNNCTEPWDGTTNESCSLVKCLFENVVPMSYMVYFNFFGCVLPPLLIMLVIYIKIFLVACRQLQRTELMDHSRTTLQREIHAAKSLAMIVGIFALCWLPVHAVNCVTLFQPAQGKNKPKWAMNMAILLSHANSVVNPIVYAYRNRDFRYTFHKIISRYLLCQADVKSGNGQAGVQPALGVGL

[2] = target: T2, human adenosine A2BR mutant Y202S^5.58 (Homo sapiens, UniProt P29275, Y202S); experiment: Liquid yeast growth assay, mutant Y202S
T2 sequence (P29275 1-332 Y202S): T1 sequence (P29275 1-332 C167S) with S167C, Y202S

[3] = system: A2BR mutant C167^EL2 to serine; details: C167^EL2 mutated to serine; cited from earlier work
hA2BR [4] = target: T3, hA2BR (Homo sapiens, UniProt P29275); experiment: Saturation binding on whole yeast cells expressing the hA2BR; details: read-out: K D, yeast
T3 sequence (P29275 1-332): T1 sequence (P29275 1-332 C167S) with S167C

hA2BR [5] = target: T3, hA2BR; details: CHO cell membranes expressing the hA2BR; cited from earlier work
[6] = system: other 11 mutant adenosine A2BRs; experiment: Solid yeast growth assay, the other 11 mutant receptors; format: cell-based, human; details: 10 μM ZM241385
[7] = target: T2, human adenosine A2BR mutant Y202S^5.58; experiment: Solid yeast growth assay, mutant Y202S; format: cell-based; details: inverse agonist response

Structure (SMILES): N#Cc1c(N)nc(SCC(N)=O)c(C#N)c1-c1ccc(OCC2CC2)cc1 [BAY 60-6583, 2-[6-amino-3,5-dicyano-4-[4-(cyclopropylmethoxy)phenyl]pyridin-2-ylsulfanyl]acetamide]
fold increase in potency compared with wild type [1]: 2 fold
fold increase in potency compared with wild type [2]: 10 fold
fold increase in potency [3]: 2.5 fold

Kd (hA2BR [4]): 0.81 ± 0.02 nM
Structure (SMILES): CCCn1c(=O)[nH]c2nc(-c3ccc(S(=O)(=O)N4CCN(c5ccc(Cl)cc5)CC4)cc3)[nH]c2c1=O [[^3H]PSB-603]
Kd (hA2BR [5]): 0.4 ± 0.19 nM

effect on constitutive activity [6]: could be fully suppressed
effect on constitutive activity [7]: could be reduced to wild-type levels
Structure (SMILES): Nc1nc(NCCc2ccc(O)cc2)nc2nc(-c3ccco3)nn12 [ZM241385, 4-{2-[7-amino-2-(2-furyl)[1,2,4]triazolo-[2,3-a][1,3,5]triazin-5-yl-amino]ethyl}phenol]
